Results reported in ChEMBL document CHEMBL6087448, “Eradication of Therapy-Resistant Cancer Stem Cells by Novel Telmisartan Derivatives” (J Med Chem, 2025).
Values after ≈ are worked out from the molar mass of the structure shown. Active and inactive are the calls of the source. The rule behind the calls is not given here.

Key:
[1] = Toxicity in female NOD/SCID mouse xenografted with human K562-r cells assessed as body weight loss at 50 mg/kg, po administered once daily for 30 days; format: organism-based; settings: in vivo, 720 h, time 30 day
K-562R [2] = assay: Antitumor activity against human K562-r cells xenografted in female NOD/SCID mouse model assessed as tumor growth inhibition at 50 mg/kg, po administered once daily for 30 days; format: functional, organism-based; settings: time 30.0 day
A2780/Taxol [3] = assay: Cytotoxicity against human Paclitaxel-resistant A2780 cells assessed as metabolic activity at 10 nM measured after 72 hrs by MTT assay relative to control; format: functional
K-562R [4] = assay: Antitumor activity against human K562-r cells xenografted in female NOD/SCID mouse model assessed as reduction in tumor volume by measuring treatment to control ratio at 10 mg/kg, po co-administered with imatinib once daily and measured after 33 days relative to control; format: functional; settings: time 33 day
MCF7 [5] = assay: Inhibition of side population phenotype in human MCF7 cells expressing ABCG2 at 10 uM incubated for 90 mins by DCV staining based flow cytometric analysis; format: functional, cell-based
PBMC [6] = assay: Inhibition of colony formation in human PBMC derived from TKI naive CML patients assessed as reduction in number of colonies at 1 uM incubated for 14 days in presence of imatinib by inverted microscopic analysis; format: functional, cell-based; settings: time 14.0 day
[7] = system: Paclitaxel-resistant A2780; assay: Inhibition of STAT5 phosphorylation in human Paclitaxel-resistant A2780 cells expressing ABCB1 at 10 uM incubated for 72 hrs by Western blotting based immunoassay; format: cell-based
PBMC [8] = assay: Effect on colony formation in human PBMC derived from healthy donors at 10 uM measured after 2 weeks by inverted microscopic analysis; format: functional, cell-based
[9] = Toxicity in female NOD/SCID mouse xenografted with human K562-r cells assessed as body weight loss at 10 mg/kg, po co-administered with imatinib once daily for 30 days; format: organism-based; settings: in vivo, 720 h, time 30 day
[10] = system: Docetaxel-resistant DU145 cell; assay: Inhibition of side population phenotype in human Docetaxel-resistant DU145 cell expressing ABCB1 at 10 uM incubated for 90 mins by DCV staining based flow cytometric analysis; format: functional
A549 [11] = assay: Inhibition of STAT5 phosphorylation in human A549 cells at 10 uM incubated for 72 hrs by Western blotting based immunoassay; format: cell-based
[12] = system: Paclitaxel-resistant IGROV-1 cell; assay: Inhibition of side population phenotype in human Paclitaxel-resistant IGROV-1 cells expressing ABCB1 at 10 uM incubated for 90 mins by DCV staining based flow cytometric analysis; format: functional
[13] = system: Docetaxel-resistant DU145 cell; assay: Enhancement of docetaxel-induced anti-metabolic activity against human Docetaxel-resistant DU145 cell assessed as reduction in metabolic activity at 10 uM measured after 72 hrs by MTT assay; format: functional, cell-based
K-562R [14] = assay: Antitumor activity against human K562-r cells xenografted in female NOD/SCID mouse model assessed as tumor growth inhibition at 10 mg/kg, po administered once daily for 30 days; format: functional, organism-based; settings: time 30.0 day
[15] = Toxicity in female NOD/SCID mouse xenografted with human K562-r cells assessed as body weight loss at 10 mg/kg, po administered once daily for 30 days; format: organism-based; settings: in vivo, 720 h, time 30 day
[16] = system: Docetaxel-resistant PC-3 cell; assay: Enhancement of docetaxel-induced anti-metabolic activity against human Docetaxel-resistant PC-3 cell assessed as reduction in metabolic activity at 10 uM measured after 72 hrs by MTT assay; format: functional, cell-based
[17] = system: Paclitaxel-resistant IGROV-1 cell; assay: Inhibition of STAT5 phosphorylation in human Paclitaxel-resistant IGROV-1 cells expressing ABCB1 at 10 uM incubated for 72 hrs by Western blotting based immunoassay
A2780/Taxol [18] = assay: Effect on STAT5 protein expression in human Paclitaxel-resistant A2780 cells expressing ABCB1 at 10 uM incubated for 72 hrs by Western blotting based immunoassay; format: functional, cell-based
A549 [19] = assay: Effect on STAT5 protein expression in human A549 cells at 10 uM incubated for 72 hrs by Western blotting based immunoassay; format: functional, cell-based
K562-r [20] = assay: Effect on STAT5 phosphorylation in human K562-r cells at 4 uM measured after 6 hrs by Western blotting based immunoassay; format: cell-based
K-562R [21] = assay: Antitumor activity against human K562-r cells xenografted in female NOD/SCID mouse model assessed as tumor growth inhibition at 10 mg/kg, po co-administered with imatinib once daily for 30 days; format: functional, organism-based; settings: time 30.0 day
PBMC [22] = assay: Effect on colony formation in human PBMC derived from healthy donors at 10 uM measured after 2 weeks in presence of imatinib by inverted microscopic analysis; format: functional, cell-based
K562-r [23] = assay: Inhibition of STAT5 phosphorylation in human K562-r cells at 4 uM measured after 6 hrs in presence of imatinib by Western blotting based immunoassay; format: cell-based
K-562R [24] = assay: Antitumor activity against human K562-r cells xenografted in female NOD/SCID mouse model assessed as reduction in tumor volume at 10 mg/kg, po co-administered with imatinib once daily and measured after 15 to 26 days; format: functional, organism-based; settings: time 15-26 day
[25] = (§1) Inhibition of side population phenotype in human K562-r cells at 10 uM incubated for 90 mins by DCV staining based flow cytometric analysis relative to control; format: functional; settings: K-562R
K-562R [26] = assay: Restoration of imatinib accumulation in human K562-r cells at 10 uM preincubated with compound for 1 hrs followed by imatinib addition and measured after 2 hrs by UHPLC-SIM-MS analysis; format: functional, cell-based; settings: time 3.0 hrs
MCF7 [27] = assay: Effect on STAT5 protein expression in human MCF7 cells at 10 uM incubated for 72 hrs by Western blotting based immunoassay; format: functional, cell-based
[28] = system: Docetaxel-resistant PC-3 cell; assay: Inhibition of side population phenotype in human Docetaxel-resistant PC-3 cell expressing ABCB1 at 10 uM incubated for 90 mins by DCV staining based flow cytometric analysis; format: functional
K562-r [29] = assay: Inhibition of STAT5 phosphorylation in human K562-r cells at 4 uM measured after 72 hrs by Western blotting based immunoassay; format: cell-based
MCF7 [30] = assay: Inhibition of STAT5 phosphorylation in human MCF7 cells at 10 uM incubated for 72 hrs by Western blotting based immunoassay; format: cell-based
K-562R [31] = assay: Effect on ABCB1 protein expression in human K562-r cells at 4 uM incubated for 72 hrs by Western blotting based immunoassay; format: functional, cell-based
K-562R [32] = assay: Cytotoxicity against human K562-r cells assessed as reduction in metabolic activity at 10 uM incubated for 72 hrs by MTT assay; format: functional, cell-based
A2780/Taxol [33] = assay: Inhibition of side population phenotype in human Paclitaxel-resistant A2780 cells expressing ABCB1 at 10 uM incubated for 90 mins by DCV staining based flow cytometric analysis; format: functional, cell-based
A2780/Taxol [34] = assay: Sensitization of paclitaxel-induced cytotoxicity against human Paclitaxel-resistant A2780 cells assessed as reduction in metabolic activity at 10 uM measured after 72 hrs by MTT assay; format: functional, cell-based
COS-7 = assay: Cytotoxicity against African green monkey COS-7 cells assessed as reduction in metabolic activity at 10 uM incubated for 72 hrs by MTT assay; format: toxicity, cell-based; settings: chlorocebus aethiops, cos-7, 72 h
A549 [35] = assay: Inhibition of side population phenotype in human A549 cells expressing ABCC1 at 10 uM incubated for 90 mins by DCV staining based flow cytometric analysis; format: functional, cell-based
[36] = Intrinsic clearance in rat hepatocytes measured per 10^6 cells; format: ADME, cell-based, Hepatocyte; settings: read-out: CLH
[37] = Aqueous solubility of compound measured after 48 hrs by HPLC analysis; format: physicochemical; settings: buffer
K-562R [38] = assay: Sensitization of imatinib-induced cytotoxicity against human K562-r cells assessed as reduction in metabolic activity at 0.5 to 10 uM measured after 72 hrs by MTT assay; format: functional, cell-based; settings: dose 0.5-10 µM
K-562R [39] = assay: Enhancement of imatinib-induced anti-metabolic activity in human K562-r cells at 0.5 to 8 uM measured after 72 hrs by MTT assay relative to control; format: functional; settings: dose 0.5-8 µM
K-562R [40] = assay: Sensitization of imatinib-induced cytotoxicity against human K562-r cells assessed as cell viability at 10 uM measured after 72 hrs by MTT assay relative to control; format: functional; settings: read-out: Activity
[41] = system: Paclitaxel-resistant IGROV-1 cell; assay: Enhancement of paclitaxel-induced anti-metabolic activity in human Paclitaxel-resistant IGROV-1 cells assessed as reduction in metabolic activity upto 300 nM measured after 72 hrs by MTT assay; format: functional, cell-based
[42] = Permeability of compound; format: ADME; settings: not told; read-out: permeability
K-562R [43] = assay: as §1; format: functional
[44] = system: Paclitaxel-resistant IGROV-1 cell; assay: Downregulation of STAT5 protein expression in human Paclitaxel-resistant IGROV-1 cells expressing ABCB1 at 10 uM incubated for 72 hrs by Western blotting based immunoassay; format: functional
K-562R [45] = assay: Inhibition of side population phenotype in human K562-r cells at 0.1 to 10 uM incubated for 90 mins by DCV staining based flow cytometric analysis; format: functional, cell-based; settings: dose 0.1-10 µM
[46] = Apparent permeability across basolateral to apical side in human Caco-2 cells at 10 uM by LC-MS/MS analysis
[47] = Apparent permeability across apical to basolateral side in human Caco-2 cells at 10 uM by LC-MS/MS analysis

| SMILES | inhibition (MCF7 [5]) | inhibition (PBMC [6]) | inhibition [7] | Activity (PBMC [8]) | inhibition [10] | inhibition (A549 [11]) | inhibition [12] | Activity [13] | Activity [16] | inhibition [17] | Activity (A2780/Taxol [18]) | Activity (A549 [19]) | Activity (K562-r [20]) | Activity (PBMC [22]) | inhibition (K562-r [23]) | Activity (MCF7 [27]) | inhibition (K562-r [29]) | inhibition (MCF7 [30]) | Activity (K-562R [31]) | Activity (K-562R [32]) | other results |
| --- | --- | --- | --- | --- | --- | --- | --- | --- | --- | --- | --- | --- | --- | --- | --- | --- | --- | --- | --- | --- | --- |
| Cc1ccc(NC(=O)c2ccc(CN3CCN(C)CC3)cc2)cc1Nc1nccc(-c2cccnc2)n1 [IMATINIB] | – | – | – | – | – | – | – | – | – | – | – | – | – | – | – | – | – | – | – | – | Activity [1]: Non-toxic; Activity (K-562R [2]): Active |
| CC(=O)O[C@H]1C(=O)[C@@]2(C)[C@H]([C@H](OC(=O)c3ccccc3)[C@]3(O)C[C@H](OC(=O)[C@H](O)[C@@H](NC(=O)c4ccccc4)c4ccccc4)C(C)=C1C3(C)C)[C@]1(OC(C)=O)CO[C@@H]1C[C@@H]2O [PACLITAXEL] | – | – | – | – | – | – | – | – | – | – | – | – | – | – | – | – | – | – | – | – | Activity (A2780/Taxol [3]): >80% |
| CCCc1nc2c(C)cc(-c3nc4ccccc4n3C)cc2n1Cc1ccc(-c2ccccc2C(N)=O)cc1 | Active | Active | Active | inactive | Active | Active | Active | Active | Active | Active | inactive | inactive | inactive | inactive | Active | inactive | Active; Lesser Effect Observed | Active | inactive | inactive | T/C (K-562R [4]): 36%; Activity [9]: Non-toxic; Activity (K-562R [14]): Active; Activity [15]: Non-toxic; Activity (K-562R [21]): Active; Strongest Inhibition Observed; Activity (K-562R [24]): Active; inhibition at 10 µM [25]: 100%; Activity (K-562R [26]): Active; inhibition [28]: Active; inhibition (A2780/Taxol [33]): Active; Activity (A2780/Taxol [34]): Active; Activity (COS-7): Non-toxic; inhibition (A549 [35]): Active |
| CCCc1nc2c(C)cc(-c3nc4ccccc4n3C)cc2n1Cc1ccc(-c2ccccc2C(=O)O)cc1 | Active | inactive | Active | inactive | Active; Modest Effect Observed | Active | Active; Modest Effect Observed | inactive | Active; Marginal Activity Observed | Active | inactive | inactive | inactive | inactive | Active | inactive | Active; Lesser Effect Observed | Active | inactive | inactive | hepatocyte CLint [36]: 23 µL/min/1e6 cells; solubility at 48 h [37]: 19.2 µM (≈ 9.88 µg/mL); Activity (K-562R [38]): Active; Marginal Enhancement Of Imatinib Activity Observed; Activity (K-562R [39]): <50%; viability at 10 µM (K-562R [40]): 34%; Activity [41]: Active; Papp [42]: 29 ×10⁻⁶ cm/s; inhibition (K-562R [43]): inactive; Activity [44]: Active; inhibition (A2780/Taxol [33]): Active; Modest Effect Observed; Activity (A2780/Taxol [34]): Active; Activity (COS-7): Non-toxic; inhibition (A549 [35]): Active |
| CCCc1nc2c(C)cc(-c3nc4ccccc4n3C)cc2n1Cc1ccc(-c2ccccc2C(=O)OC)cc1 | Active | Active | Active | inactive | Active | Active | Active | Active | Active; Marginal Activity Observed | inactive | inactive | inactive | inactive | inactive | Active | inactive | Active; Lesser Effect Observed | Active | inactive | inactive | inhibition (K-562R [45]): Active; Similar To Valspodar; Papp B→A at 10 µM [46]: 0.2 ×10⁻⁶ cm/s; Activity [41]: inactive; inhibition at 10 µM [25]: 100%; Activity (K-562R [26]): Active; inhibition [28]: Active; Papp A→B at 10 µM [47]: 0.1 ×10⁻⁶ cm/s; inhibition (A2780/Taxol [33]): Active; Activity (A2780/Taxol [34]): Active; Activity (COS-7): Non-toxic; inhibition (A549 [35]): Active |
